{"source": "patent US10550130B2", "about": "“Benzo-thiazolo-imidazole compounds and uses thereof” (KING SAUD UNIVERSITY, priority 2015, dated 2020)", "key": {"[1]": {"tested_on": "THP-1 acute monocytic leukemia cells", "assay": "CD34 positive cell population by flow cytometry", "type": "cell-based", "settings": "48 h", "experimental": "THP-1 leukemic cells were cultured in RPMI medium in […] flask and treated with KSA-101696 for 48 h. Cells were then washed and stained with anti-CD34-FITC (BD biosciences) for 30 min at room temperature. The hematopoietic stem cell population (CD34 positive cells) was analyzed by flow cytometry to evaluate the effect of KAS-101696 on hematopoietic stem cells of leukemic origin."}, "[2]": {"tested_on": "MDA-MB-231 cells", "assay": "Migration assay", "type": "cell-based", "settings": "Homo sapiens, 2.5 μM to 20 μM, read-out: IC50, migration capacity", "experimental": "To assess the metastatic potential of tumor cells, their migration and invasion was evaluated using the 24-well BD BioCoat Matrigel Invasion Chamber as per the manufacturer guideline (BD Bioscience). In brief, 750 μl of migration buffer (serum-free media with or without treatment) or chemoattractants (serum-containing media) were added to the lower wells. Cells were washed three times in migration media and 500 μl (1-2×10^5) of cells were added to the upper wells separated by an 8 micron pore size PET membrane with a thin layer of matrigel basement membrane matrix (for invasion) or without (for migration). The membranes were stained with Diff Quick stain (Fisher Scientific) after removing the non-migrated cells from the top of the membrane with Q-tips. After air drying, the membranes were cut and mounted on slides with oil and cells that had migrated to the underside of the filter were counted using a light microscope (Zeiss Axio Observer) in five randomly selected fields (magnification: 40×). Each assay was performed in triplicate and repeated at least five times. The results were expressed as mean±SD of migrating cells per field counted (FIGS. 6A-6B)."}, "[3]": {"tested_on": "MDA-MB-468 tumors", "assay": "Antitumor activity in mice", "type": "in vivo, Nude mice", "experimental": "(§1) Nude mice (Jackson Laboratories, Bar Harbor, Me., USA) were injected with 4×10^6 cells of MDA-MB-468 in the mammary pad and tumor size was measured weekly using a caliper. When the tumor reached approximately 100 mm^3 diameter the mice were divided into a control group and a group treated with KSA-101696 200 mg/kg via intraperitoneal injection (three cycles every four days). Apparent toxicity as determined by body weight loss is recorded by measuring total body weight. Breeding, care and sacrifice of the animals were carried out in accordance with the protocols approved by the Animal Care and Use Committee of the King Faisal Specialist Hospital and Research Centre.\n(§2) Because of the observed selective cytotoxic effect of compound KSA-101696 against cancer cells and the tolerance of normal cells and normal stem cells in vitro, a high dose of compound KSA-101696 (200 mg/kg) was used on mice."}, "[4]": {"tested_on": "MCF-7", "assay": "Cell proliferation by 3H-thymidine uptake assay", "type": "cell-based", "settings": "Homo sapiens, MCF7, 72 h, read-out: IC50, growth inhibition (3H-thymidine uptake)", "experimental": "(§3) In vitro antitumor activity of the compound was assessed by ^3H-thymidine uptake. The cells were treated and they were about 60% confluent. Cells were seeded at 4×10^3 cells per well in a 96 well plate in DMEM containing 10% FBS for 24 h followed by treatment with control media (0.1% DMSO) or media containing different concentration of the compound incubated for 72 h at 37° C. in 5% CO2. Cells were labelled by addition of ^3H-thymidine (Amersham, Chiltern Hills, London, UK) at 1 μCi/well for 18 h before harvesting. ^3H-thymidine uptake was measured using a 1450 Micro Beta PLUS liquid scintillation counter (Wallac, Waltham, Mass., USA).\n(§4) In another experiment, the in vitro antitumor activity of the compound was assessed by a 3H-thymidine uptake experiment. To this end, cells of the tumor cell lines MCF-7, SKBR3 and MDA-MB-468 were seeded at 4×10^3 cells per well in a 96 well plate in DMEM containing 10% FBS for 24 h followed by treatment with control media (0.1% DMSO) or media containing different concentration of the compound (5 μM, 10 μM, 20 μM, 40 μM or 80 μM final concentration of KSA-101696) and incubated for 72 h at 37° C. in 5% CO2. At about 60% confluency, cells were labelled by addition of 3H-thymidine (Amersham, Chiltern Hills, London, UK) at 1 μCi/well for 18 h before harvesting. 3H-thymidine uptake was measured using a 1450 Micro Beta PLUS liquid scintillation counter (Wallac, Waltham, Mass., USA)."}, "[5]": {"tested_on": "MDA-MB-468", "assay": "Cell proliferation by 3H-thymidine uptake assay", "type": "cell-based", "settings": "Homo sapiens, 72 h, read-out: IC50, growth inhibition (3H-thymidine uptake)", "experimental": "as §3, §4"}, "[6]": {"tested_on": "SKBR3", "assay": "Cell proliferation by 3H-thymidine uptake assay", "type": "cell-based", "settings": "Homo sapiens, SK-BR-3, 72 h, read-out: IC50, growth inhibition (3H-thymidine uptake)", "experimental": "as §3, §4"}, "[7]": {"tested_on": "normal cells MCF-10 A, HSFN1 (human foreskin cells) and BM4 (bone marrow derived mesenchymal stem cells)", "assay": "Annexin V binding by flow cytometry (apoptosis) in normal cells", "type": "cell-based", "settings": "20 μM, 48 h", "experimental": "It is known that loss of phospholipid asymmetry of the plasma membrane is an early event of apoptosis. The annexin V binds to negatively charged phospholipids, like phosphatidylserine. During apoptosis, the cells react to annexin V once chromatin condenses but before the plasma membrane loses its ability to exclude propidium iodide (PI).\nAnnexin-V staining was performed by using Vybrant Apoptosis Assay Kit #2 (Molecular Probes) following the manufacturer's recommendations. Annexin-V stained cells were analyzed by flow cytometry, measuring the fluorescence emission between 515 nm to 545 nm.\nTo evaluate the selective-apoptotic effect of the compound in cancer cells but not normal cells, the cancer cell lines SKBR3, MDA-MB-468, and normal cells MCF-10 A, HSFN1 (human foreskin cells) and BM4 (bone marrow derived mesenchymal stem cells) were used. […] Upon treatment of cells with 20 μM for 48 h, cells were stained with Annexin-V and PI and binding of Annexin-V and PI to the cells was determined by flow cytometry."}, "[8]": {"tested_on": "MCF-7 cells", "assay": "Flow cytometric analysis of cellular DNA content (cell cycle distribution)", "type": "cell-based", "settings": "20 μM, 8, 16, 12 and 48 h", "experimental": "2×10^6 cells were fixed in 1 ml ethanol (70%) for 60 min at room temperature. Harvested cells were resuspended in 1 ml Na citrate (50 mM) containing 250 μg RNase A and incubated at 50° C. for 60 min. Next, cells were resuspended in the same buffer containing 4 μg propidium iodide (PI) and incubated for 30 min before being analyzed by flow cytometry (Becton Dickinson, San. Jose, Calif., USA). The percentage of cells in various cell cycle phases was determined by using Cell Quest Pro software (Becton Dickinson).\nTo gain insight into the mechanism by which anti-proliferation was achieved, the effect on cell cycle distribution was investigated by fluorescence-activated cell sorting (FACS) analysis. […] This was also accompanied by a compensatory decrease in G1 phase cells. Based on histograms the compound blocks the cells on early stage of mitosis, thereby inhibiting the transition of the cells to complete mitosis."}, "[9]": {"assay": "Apparent toxicity (body weight, general signs) in tumor-bearing mice", "type": "in vivo", "settings": "200 mg/kg intraperitoneal, three doses", "experimental": "as §1, §2"}}}
{"smiles": "COc1ccc(-c2csc3nc4ccccc4n23)cc1", "note": "[KSA-101696, 3-(4-methoxyphenyl)benzo[4,5]imidazo[2,1-b]thiazole]", "values": [{"measurement": "CD34+ cells percentage", "setting": "[1]", "value": "reduction of CD34^+ cells percentage"}, {"measurement": "IC50", "setting": "[2]", "value": "~7.5", "unit": "µM"}, {"measurement": "reduction (shrinking) of tumor volume", "setting": "[3]; 200 mg/kg intraperitoneal, three doses, mice bearing MDA-MB-468 tumors", "value": 70, "unit": "%"}, {"measurement": "ED50", "setting": "[3]; Mus musculus, MDA-MB-468, ip, intraperitoneal, read-out: ED50 (dose that shrinks the tumor volume by 50% at the end of treatment)", "value": 50, "unit": "mg/kg"}, {"measurement": "IC50", "setting": "[4]", "value": "~5", "unit": "µM"}, {"measurement": "IC50", "setting": "[5]", "value": "~2.5", "unit": "µM"}, {"measurement": "IC50", "setting": "[6]", "value": 7.5, "unit": "µM"}, {"measurement": "apoptosis (Annexin-V and PI) in normal cells", "setting": "[7]", "value": "little apoptotic effect"}, {"measurement": "cell cycle distribution", "setting": "[8]", "value": "accumulation of cells in G2/M phase in a time-dependent manner"}, {"measurement": "signs of general toxicity", "setting": "[9]", "value": "no convulsions, CNS stimulation, diarrhea, increased urination, miosis or mydriasis"}, {"measurement": "weight loss", "setting": "[9]", "value": "no measurable weight loss"}]}
